Data published in patent US8686024B2, “Indoline derivatives” (priority 2009, dated 2014).
Like-named read-outs stand apart in the source and are kept apart here.

How the values were obtained:
[1] = molecular target: T1, acetylcholine esterase (AChE) (Mus musculus, UniProt P21836); experiment: In vitro assay for choline esterase inhibition (Ellman method), acetylthiocholine substrate, mouse brain homogenate; type: biochemical
T1 construct: brain homogenate and serum of mouse were used as choline esterase enzyme sources; from tissue; host or cells: mouse brain homogenate
T1 sequence (P21836 32-614): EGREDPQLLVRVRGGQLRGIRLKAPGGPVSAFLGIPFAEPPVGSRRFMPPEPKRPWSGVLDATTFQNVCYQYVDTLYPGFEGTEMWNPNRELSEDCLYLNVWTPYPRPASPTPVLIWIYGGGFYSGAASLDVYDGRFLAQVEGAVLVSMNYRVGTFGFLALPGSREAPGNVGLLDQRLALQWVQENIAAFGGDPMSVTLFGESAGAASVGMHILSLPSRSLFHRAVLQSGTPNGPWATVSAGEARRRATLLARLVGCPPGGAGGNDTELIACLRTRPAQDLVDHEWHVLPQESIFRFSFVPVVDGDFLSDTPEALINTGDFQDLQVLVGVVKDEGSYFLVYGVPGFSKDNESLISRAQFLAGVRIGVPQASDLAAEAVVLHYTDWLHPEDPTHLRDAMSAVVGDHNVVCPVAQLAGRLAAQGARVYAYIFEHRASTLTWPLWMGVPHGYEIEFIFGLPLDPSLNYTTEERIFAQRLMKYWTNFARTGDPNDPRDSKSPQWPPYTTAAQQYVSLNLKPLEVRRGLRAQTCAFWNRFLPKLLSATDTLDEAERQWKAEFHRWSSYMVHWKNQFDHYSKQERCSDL
Experimental: (§1) For measurement of esterase activity, brain homogenate and serum of mouse were used as choline esterase enzyme sources, and the method of Ellman et. al (Biochemical pharmacology 7: 88-95 1961) were referred. Compound of each example were diluted in dimethylsulfoxide.
(§2) In detail, acetylthiocholine or butyrylthiocholine as substrates, test compounds, and DNTB [[…]] were added to the mouse brain homogenate or serum, respectively.
(§3) After incubation, thiocholine was produced by enzyme reaction in the mixture, and then, the yellow product was formed by the reaction of thiocholine and DTNB. The activity of acetylcholine esterase (AChE) or butyrylcholine esterase (BuChE) was evaluated by determination of absorbance at 415 nm. […] And the selectivity for BuChE inhibition of each compound was calculated by the ratio: IC50 (AchE)/IC50 (BuChE).

[2] = molecular target: T2, butyrylcholine esterase (BuChE) (Mus musculus, UniProt Q03311); experiment: In vitro assay for choline esterase inhibition (Ellman method), butyrylthiocholine substrate, mouse serum; type: biochemical; conditions: for Ratio AChE/BuChE: selectivity for BuChE inhibition: IC50 (AchE)/IC50 (BuChE); for selectivity to butyrylcholinesterase (BuChE versus AChE inhibitory activity), in words: summary of Tables 1-3
T2 construct: brain homogenate and serum of mouse were used as choline esterase enzyme sources; from tissue; host or cells: mouse serum
Experimental: as §1, §2, §3

[3] = mouse brain homogenate, acetylthiocholine, absorbance at 415 nm, read-out: AChE inhibitory activity IC50
[4] = mouse serum, butyrylthiocholine, absorbance at 415 nm, read-out: BuChE inhibitory activity IC50

T2 sequence (Q03311 30-603): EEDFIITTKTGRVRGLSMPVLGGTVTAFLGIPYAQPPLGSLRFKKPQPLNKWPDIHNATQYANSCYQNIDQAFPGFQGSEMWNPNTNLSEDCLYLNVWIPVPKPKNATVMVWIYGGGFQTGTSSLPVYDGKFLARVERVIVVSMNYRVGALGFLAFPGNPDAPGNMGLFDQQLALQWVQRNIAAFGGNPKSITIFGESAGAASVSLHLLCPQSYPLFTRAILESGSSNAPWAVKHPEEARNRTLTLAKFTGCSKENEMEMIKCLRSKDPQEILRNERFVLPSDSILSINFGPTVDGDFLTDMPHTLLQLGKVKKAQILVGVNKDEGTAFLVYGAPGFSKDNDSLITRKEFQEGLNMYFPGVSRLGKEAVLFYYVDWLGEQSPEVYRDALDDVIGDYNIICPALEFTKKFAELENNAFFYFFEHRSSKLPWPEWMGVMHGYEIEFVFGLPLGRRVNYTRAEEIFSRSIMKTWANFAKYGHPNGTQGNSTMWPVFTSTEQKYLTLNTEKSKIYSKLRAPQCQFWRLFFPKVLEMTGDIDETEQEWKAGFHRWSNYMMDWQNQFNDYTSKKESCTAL

For CC(C)c1ccc(NC(=O)Oc2ccc3c(c2)CCN3Cc2ccccc2)cc1 [Example 2, 1-benzylindolin-5-yl 4-isopropylphenylcarbamate], the IC50 [1] was over 100 µM, the IC50 [2] was 570 nM and the “Ratio AChE/BuChE” value [2] was over 180.
CC(C)c1ccc(NC(=O)Oc2ccc3c(c2)CCN3CCc2ccccc2)cc1 [Example 3, 1-phenethylindolin-5-yl 4-isopropylphenylcarbamate] was tested, and the IC50 [1] was over 100 µM, the IC50 [2] was 1200 nM and the “Ratio AChE/BuChE” value [2] was over 83.
In the case of CC(C)c1ccc(NC(=O)Oc2ccc3c(c2)CCN3CCC(C)(C)C)cc1 [Example 7, 1-(3,3-dimethylbutyl)indolin-5-yl 4-isopropylphenylcarbamate], the IC50 [1] is reported as over 100 µM, the IC50 [2] is reported as 900 nM and the “Ratio AChE/BuChE” value [2] is reported as over 110.
With COc1ccc(NC(=O)Oc2ccc3c(c2)CCN3Cc2ccccc2)cc1 [Example 9, 1-benzylindolin-5-yl 4-methoxyphenylcarbamate] the IC50 [1] was over 100 µM, the IC50 [2] was 98 nM and the “Ratio AChE/BuChE” value [2] was over 1000. The “selectivity to butyrylcholinesterase (BuChE versus AChE inhibitory activity), in words” value [2] was “much higher”.
O=C(Nc1ccc2c(c1)OCCO2)Oc1ccc2c(c1)CCN2Cc1ccccc1 [Example 11, 1-benzylindolin-5-yl 2,3-dihydro-1,4-benzodioxin-6-ylcarbamate] was tested, and the IC50 [1] was over 100 µM, the IC50 [2] was 170 nM and the “Ratio AChE/BuChE” value [2] was over 590.
For O=C(Nc1ccc2c(c1)OCO2)Oc1ccc2c(c1)CCN2Cc1ccccc1 [Example 12, 1-benzylindolin-5-yl 5-benzo[d][1,3]dioxolylcarbamate], the IC50 [1, 3] was 11 µM, the IC50 [2, 4] was 290 nM and the “Ratio AChE/BuChE” value [2] was 38.
O=C(Nc1ccc2c(c1)CCO2)Oc1ccc2c(c1)CCN2Cc1ccccc1 [Example 14, 1-benzylindolin-5-yl 2,3-dihydro-1-benzofuran-5-ylcarbamate] was tested, and the IC50 [1, 3] was 2.7 µM, the IC50 [2, 4] was 41 nM and the “Ratio AChE/BuChE” value [2] was 66.
O=C(NCc1ccccc1)Oc1ccc2c(c1)CCN2Cc1ccccc1 [Example 15, 1-benzylindolin-5-yl benzylcarbamate] was tested, and the IC50 [1, 3] was 1.8 µM, the IC50 [2, 4] was 13 nM and the “Ratio AChE/BuChE” value [2] was 140. For the same compound, the “selectivity to butyrylcholinesterase (BuChE versus AChE inhibitory activity), in words” value [2] was “much higher”.
O=C(NCCc1ccccc1)Oc1ccc2c(c1)CCN2Cc1ccccc1 [Example 16, 1-benzylindolin-5-yl phenethylcarbamate] was tested, and the IC50 [1, 3] was 9.8 µM, the IC50 [2, 4] was 42 nM and the “Ratio AChE/BuChE” value [2] was 230. The “selectivity to butyrylcholinesterase (BuChE versus AChE inhibitory activity), in words” value [2] was “much higher”.
In the case of CCCCCCNC(=O)Oc1ccc2c(c1)CCN2Cc1ccccc1 [Example 17, 1-benzylindolin-5-yl n-hexylcarbamate], the IC50 [1, 3] is reported as 8 µM, the IC50 [2, 4] is reported as 16 nM and the “Ratio AChE/BuChE” value [2] is reported as 500. The “selectivity to butyrylcholinesterase (BuChE versus AChE inhibitory activity), in words” value [2] was “much higher”.
With O=C(NCc1ccco1)Oc1ccc2c(c1)CCN2Cc1ccccc1 [Example 18, 1-benzylindolin-5-yl furfurylcarbamate] the IC50 [1, 3] was 1.8 µM, the IC50 [2, 4] was 38 nM and the “Ratio AChE/BuChE” value [2] was 47.
With C[C@H](NC(=O)Oc1ccc2c(c1)CCN2Cc1ccccc1)c1ccccc1 [Example 19, 1-benzylindolin-5-yl (S)-1-phenylethylcarbamate] the IC50 [1] was over 100 µM, the IC50 [2] was 190 nM and the “Ratio AChE/BuChE” value [2] was over 530.
In the case of O=C(NC1CCCCC1)Oc1ccc2c(c1)CCN2Cc1ccccc1 [Example 20, 1-benzylindolin-5-yl cyclohexylcarbamate], the IC50 [1] is reported as over 100 µM, the IC50 [2] is reported as 67 nM and the “Ratio AChE/BuChE” value [2] is reported as over 1500. For the same compound, the “selectivity to butyrylcholinesterase (BuChE versus AChE inhibitory activity), in words” value [2] was “much higher”.
In the case of CC(C)c1ccc(NC(=O)Oc2ccc3c(c2)CCN3Cc2ccncc2)cc1 [Example 27, 1-(4-pyridylmethyl)indolin-5-yl 4-isopropylphenylcarbamate], the IC50 [1] is reported as over 100 µM, the IC50 [2] is reported as 1100 nM and the “Ratio AChE/BuChE” value [2] is reported as over 91.
CC(C)c1ccc(NC(=O)Oc2ccc3c(c2)CCN3Cc2cccnc2)cc1 [Example 28, 1-(3-pyridylmethyl)indolin-5-yl 4-isopropylphenylcarbamate] was tested, and the IC50 [1] was over 100 µM, the IC50 [2] was 470 nM and the “Ratio AChE/BuChE” value [2] was over 210.
With COc1ccc(CNC(=O)Oc2ccc3c(c2)CCN3Cc2ccccc2)cc1 [Example 31, 1-benzylindolin-5-yl 4-methoxybenzylcarbamate] the IC50 [1, 3] was 4.1 µM, the IC50 [2, 4] was 17 nM and the “Ratio AChE/BuChE” value [2] was 240. For the same compound, the “selectivity to butyrylcholinesterase (BuChE versus AChE inhibitory activity), in words” value [2] was “much higher”.
In the case of COc1ccc(CCNC(=O)Oc2ccc3c(c2)CCN3Cc2ccccc2)cc1 [Example 32, 1-benzylindolin-5-yl 4-methoxyphenethylcarbamate], the IC50 [1] is reported as over 100 µM, the IC50 [2] is reported as 160 nM and the “Ratio AChE/BuChE” value [2] is reported as over 630.
CC(C)c1ccc(CCNC(=O)Oc2ccc3c(c2)CCN3Cc2ccccc2)cc1 [Example 33, 1-benzylindolin-5-yl 4-isopropylphenethylcarbamate] was tested, and the IC50 [1] was over 100 µM, the IC50 [2] was 350 nM and the “Ratio AChE/BuChE” value [2] was over 290.
In the case of O=C(NCC1CCCCC1)Oc1ccc2c(c1)CCN2Cc1ccccc1 [Example 34, 1-benzylindolin-5-yl cyclohexylmethylcarbamate], the IC50 [1] is reported as over 100 µM, the IC50 [2] is reported as 3 nM and the “Ratio AChE/BuChE” value [2] is reported as over 33000. The “selectivity to butyrylcholinesterase (BuChE versus AChE inhibitory activity), in words” value [2] was “much higher”.
CC(C)CNC(=O)Oc1ccc2c(c1)CCN2Cc1ccccc1 [Example 35, 1-benzylindolin-5-yl 2-methylpropylcarbamate] was tested, and the IC50 [1, 3] was 46 µM, the IC50 [2, 4] was 8 nM and the “Ratio AChE/BuChE” value [2] was 5800. For the same compound, the “selectivity to butyrylcholinesterase (BuChE versus AChE inhibitory activity), in words” value [2] was “much higher”.
O=C(NC1CC1)Oc1ccc2c(c1)CCN2Cc1ccccc1 [Example 41, 1-benzylindolin-5-yl cyclopropylcarbamate] was tested, and the IC50 [1, 3] was 36 µM, the IC50 [2, 4] was 190 nM and the “Ratio AChE/BuChE” value [2] was 190.
For CC(C)(C)CCNC(=O)Oc1ccc2c(c1)CCN2Cc1ccccc1 [Example 42, 1-benzylindolin-5-yl 3,3-dimethylbutylcarbamate], the IC50 [1] was over 100 µM, the IC50 [2] was 23 nM and the “Ratio AChE/BuChE” value [2] was over 4300. For the same compound, the “selectivity to butyrylcholinesterase (BuChE versus AChE inhibitory activity), in words” value [2] was “much higher”.
CC(C)(C)C1CCC(NC(=O)Oc2ccc3c(c2)CCN3Cc2ccccc2)CC1 (stereo not drawn) [Example 43, 1-benzylindolin-5-yl 4-tert-butylcyclohexylcarbamate] was tested, and the IC50 [1] was over 100 µM, the IC50 [2] was 170 nM and the “Ratio AChE/BuChE” value [2] was over 590.
For O=C(NC1Cc2ccccc2C1)Oc1ccc2c(c1)CCN2Cc1ccccc1 [Example 44, 1-benzylindolin-5-yl 2-indanylcarbamate], the IC50 [1] was over 100 µM, the IC50 [2] was 32 nM and the “Ratio AChE/BuChE” value [2] was over 3100. The “selectivity to butyrylcholinesterase (BuChE versus AChE inhibitory activity), in words” value [2] was “much higher”.
With O=C(NC1CCCCCCC1)Oc1ccc2c(c1)CCN2Cc1ccccc1 [Example 45, 1-benzylindolin-5-yl cyclooctylcarbamate] the IC50 [1] was over 100 µM, the IC50 [2] was 21 nM and the “Ratio AChE/BuChE” value [2] was over 4800. For the same compound, the “selectivity to butyrylcholinesterase (BuChE versus AChE inhibitory activity), in words” value [2] was “much higher”.
CCC(COC)NC(=O)Oc1ccc2c(c1)CCN2Cc1ccccc1 (stereo not drawn) [Example 46, 1-benzylindolin-5-yl 1-methoxybutan-2-ylcarbamate] was tested, and the IC50 [1] was over 100 µM, the IC50 [2] was 150 nM and the “Ratio AChE/BuChE” value [2] was over 670.
In the case of O=C(NCC12CC3CC(CC(C3)C1)C2)Oc1ccc2c(c1)CCN2Cc1ccccc1 [Example 47, 1-benzylindolin-5-yl 1-adamantanemethylcarbamate], the IC50 [1] is reported as over 100 µM, the IC50 [2] is reported as 82 nM and the “Ratio AChE/BuChE” value [2] is reported as over 1200. The “selectivity to butyrylcholinesterase (BuChE versus AChE inhibitory activity), in words” value [2] was “much higher”.
In the case of CSCCCNC(=O)Oc1ccc2c(c1)CCN2Cc1ccccc1 [Example 49, 1-benzylindolin-5-yl 3-methylthiopropylcarbamate], the IC50 [1, 3] is reported as 6.3 µM, the IC50 [2, 4] is reported as 12 nM and the “Ratio AChE/BuChE” value [2] is reported as 530. For the same compound, the “selectivity to butyrylcholinesterase (BuChE versus AChE inhibitory activity), in words” value [2] was “much higher”.
For CCCCCC(C)NC(=O)Oc1ccc2c(c1)CCN2Cc1ccccc1 (stereo not drawn) [Example 50, 1-benzylindolin-5-yl 2-heptylcarbamate], the IC50 [1] was over 100 µM, the IC50 [2] was 53 nM and the “Ratio AChE/BuChE” value [2] was over 1900. For the same compound, the “selectivity to butyrylcholinesterase (BuChE versus AChE inhibitory activity), in words” value [2] was “much higher”.
O=C(NCC1CCCO1)Oc1ccc2c(c1)CCN2Cc1ccccc1 (stereo not drawn) [Example 51, 1-benzylindolin-5-yl 2-tetrahydrofurylmethylcarbamate] was tested, and the IC50 [1, 3] was 18 µM, the IC50 [2, 4] was 16 nM and the “Ratio AChE/BuChE” value [2] was 1100. For the same compound, the “selectivity to butyrylcholinesterase (BuChE versus AChE inhibitory activity), in words” value [2] was “much higher”.
